Series [1] relates to healthy male human subjects. The series can be described thus: Gastric emptying rates in healthy male human subjects (13C-breath test, BreathID). It counts as in vivo. The method, then: Measurement of Gastric Emptying Rates in Human Study Population
Healthy male subjects, who aged between 18 and 55 years old and have a normal gastric emptying (GE) rate, are screened and enrolled into the study.
Subjects are given single oral doses of Compound A at 0.6 and 3 microg. Subjects swallowed dosing solution (20 mL) of appropriate Compound A concentrations. The dosing bottle is rinsed with 20 mL of water, and this rinse is swallowed by the subjects. The subjects then swallowed 200 mL of room temperature water, resulting in a total fluid intake at dosing of 240 mL.
GE is monitored with ^13C-breath test using the BreathiD system (Exalenz Bioscience Inc., Modin, Israel), which enables to continuously analyze the subject's breath for exhaled CO2 via a nasal cannula using molecular correlation spectrometry at the bedside. […] GE rate of solids is evaluated over the 4 hours period following ingestion of a standardized solid test meal, which are comprised of 2 slices of bread, 1 egg and 150 mL water including an egg yolk that have been mixed with 100 mg ^13C-octanoic acid (total calorific intake of 200-300 kcal). […] The parameters for GE of gastric half emptying time (GET1/2), lag phase (Tlag), gastric emptying coefficient (GEC) and gastric emptying area under the effect curve (AUEC) are automatically calculated.

Series [2] has as its system clonidine-induced gastroparesis model in dogs. Put plainly: Gastric emptying rates in conscious dogs, clonidine-induced gastroparesis model (acetaminophen method). To be noted: clonidine 0.01 mg/kg s.c. It counts as in vivo, beagle dogs. The method, then: Measurement of Gastric Emptying Rates in Conscious Dogs
All dogs are purchased from Kitayama Labes Co., Ltd. (Oriental Yeast Co., Ltd.). The animals are acclimatized to the laboratory conditions during experiments.
Dogs are fasted overnight, and then they are fed the test meal (10 mL/kg), which is ingested within 3 minutes. Blood samples are obtained at 0, 15, 30, 45, 60, 75, and 90 minutes after test meal administration. To provide a model of gastroparesis, 0.01 mg/kg of clonidine (alpha2 adrenergic agonist, Wako Pure Chemical Industries, Ltd., Osaka, Japan) is injected subcutaneously 30 minutes before test meal administration. […] Plasma is separated from the blood by centrifugation at 3,000 g for 5 min at 4° C. (himac CF15D, Hitachi Koki Co., Ltd., Tokyo, Japan). The plasma acetaminophen concentration is measured by LC-mass spectrometry.
Aliquots of dog plasma (50 microL) and 50 microL of internal standard (IS)* solution are mixed and vortexed well, and then they are diluted to a final volume of 750 microL with 50 mM ammonium acetate. As IS, [D4]4-acetamidophenol is used. Following conditioning of the solid phase extraction (SPE) 96 well plate (OASIS HLB, 10 mg/well, 30 microm, Waters Corporation, Milford, Mass., USA) with 700 microL methanol and 700 microL water in sequence, 750 microL of the plasma samples are transferred to the SPE plate for extraction. The SPE plate is then washed with 700 microL of 5% methanol. Samples are eluted twice off the SPE plate into a clean 96 deep well plate by addition of 250 microL of methanol. The eluent is then evaporated to dryness under 40° C. gentle stream of nitrogen, and reconstituted in 100 microL of acetonitrile/10 mM ammonium acetate (1/9, v/v). The samples are injected into HPLC column, and then the effluent from HPLC column is directly introduced into the turboionspray ion source, which is operated at the following conditions: * 300 ng/mL [D4]4-acetamidophenol: 10% methanol solution.

Series [3] deals with patients with gastroparesis. The series can be described thus: Gastric emptying rates in patients with gastroparesis (SmartPill). The format is in vivo, human. The method, then: Measurement of Gastric Emptying Rates in Patients with Gastroparesis Clinical studies in patients with gastroparesis are conducted. Effect of Compound A on gastric emptying time (GET) is confirmed with SmartPill (Registered Trademark, Given Imaging Ltd.). SmartPill is an ingestible capsule that measures pressure, pH and temperature as it travels through the gastrointestinal (GI) tract to assess GI motility. The SmartPill motility monitoring test can be performed at a clinic or physician's office to evaluate motility disorders like gastroparesis (a condition in which the contents of the stomach empty too slowly) and chronic constipation. An improved gastric emptying time and colonic transit time are observed in the clinical studies.

SMILES strings stand for the structures. Entries after “also recorded” stand apart in the source; their conditions may differ.

With `O=C(O)C1(CN2CCC(COc3noc4cccc(OCC(F)(F)F)c34)CC2)CCOCC1` [Compound A, 4-{[4-({[4-(2,2,2-trifluoroethoxy)-1,2-benzisoxazol-3-yl]-oxy}methyl)piperidin-1-yl]methyl}tetrahydro-2H-pyran-4-carboxylic acid], the “Severe Adverse Events and undesirable adverse events including QT/QTc prolongation” value in series [1] (even at supratherapeutic doses, human healthy subjects) is “No Severe Adverse Events (SAEs) and undesirable adverse events”. The “Absolute change from baseline in gastric half emptying time (GET1/2)” value in series [1] (single oral doses 0.6 and 3 microg, healthy male human subjects) is listed as “clearly observed; also recorded: improved”. Further, the “Effect on delayed gastric emptying induced by clonidine (plasma acetaminophen)” value in series [2] (Compound A 0.3 microg/kg p.o.) is reported as “significantly restored delayed gastric emptying induced by clonidine (0.01 mg/kg) to the normal levels; also recorded: equivalent to that of cisapride (1 mg/kg, p.o.)”. Moreover, in series [3], the Colonic transit time result is listed as “improved” and the “Gastric emptying time (GET)” value is recorded as “improved”.

For the compound `COc1cc(N)c(Cl)cc1C(=O)NC1CCN(CCCOc2ccc(F)cc2)CC1OC` (stereo not shown) [Cisapride, cisapride, reference compound], the “Effect on delayed gastric emptying induced by clonidine (plasma acetaminophen)” value in series [2] (cisapride 1, 3 mg/kg p.o.) is listed as “reversed delayed gastric emptying”.

Regarding `Clc1cccc(Cl)c1N=C1NCCN1` [clonidine, reference compound], the “Plasma APAP concentration at 60 min after meal administration” value in series [2] (gastroparesis model induction) was “significantly decreased”.

The record behind these values is patent publication US9833447B2, “5-HT4 receptor agonist for gastroparesis” (RAQUALIA PHARMA INC., priority 2014, dated 2017).
